Measurements: patent publication US8999970B2, “Administration of an anti-obesity compound to individuals with renal impairment” (Arena Pharmaceuticals, Inc., priority 2010, dated 2015)
“And” between values parts separate entries of the source, which are not always exact repeats. Equal entries are not always repeated. “Also recorded” adds a separate entry of the source.

Columns and labels:
[1] = Preclinical toxicology: lorcaserin, M1 and M5 pharmacokinetics after oral administration of lorcaserin, 52 wk, monkeys; settings: for AUC0-inf / AUClast / Cmax / tmax: Monkeys, 52 wk; for Dose proportionality of plasma exposure: monkeys, Day 1, 2 to 125 mg/kg, both sexes
Protocol: Lorcaserin doses of 0, 2, 10, 50, and 125 mg/kg in a 5 mL/kg dose volume were administered by nasogastric intubation once daily for 12 months to cynomolgus monkeys (4 to 6/sex/group). Two animals/sex from the control, 50 and 125 mg/kg groups were continued on study without further dosing for an additional 4 weeks prior to termination. For the first 91 days of the study, dose solutions were prepared using anhydrous lorcaserin. Starting on Day 92 and continuing for the remainder of the study, dose solutions were prepared using lorcaserin hemihydrate to match the intended commercial form. […] Evaluations included clinical signs, food consumption, BW, electrocardiograms, ophthalmic exams, and clinical pathology indices. Blood samples were collected for TK analysis on Day 1, Week 4, Day 91, Day 92, and Week 52. A full necropsy was conducted on all animals, and tissues were collected, preserved, processed, and examined microscopically. Additional sections of heart were collected to allow comprehensive evaluation of all heart valves. Heart histopathologic evaluation included atria, ventricles, interventricular septum, both AV valves (mitral and tricuspid), and the aortic and pulmonic valves.

[2] = Modeled steady state exposures following lorcaserin 10 mg BID (simulations and noncompartmental analysis from QD data); settings: for AUC24 hr / Cmax / t1/2: 10 mg BID Simulation, Steady State
Protocol: To better assess the potential implications of M1 and M5 levels in patients, steady state exposures (i.e. the state of equilibrium obtained at the end of a certain number of dosings) following lorcaserin 10 mg twice daily (BID) dosing were modeled using simulations and noncompartmental analysis based on data from pharmacokinetic studies with once daily (QD) dosing.
To better assess the potential implications of M1 levels in subjects with renal impairment, steady state M1 exposure following lorcaserin 10 mg BID administration was modeled using simulations and noncompartmental analysis based upon data from pharmacokinetic studies with once daily (QD) dosing. This modeling is discussed below in Example 5.
To better assess the potential implications of M1 and M5 levels, steady state exposures following lorcaserin 10 mg BID dosing were modeled using simulations and noncompartmental analysis based upon data from pharmacokinetic studies with once daily (QD) dosing.

[3] = lorcaserin 10 mg/kg/day oral, F
[4] = lorcaserin 10 mg/kg/day oral, M
[5] = lorcaserin 50 mg/kg/day oral, F
[6] = lorcaserin 50 mg/kg/day oral, M
[7] = lorcaserin 125 mg/kg/day oral, F
[8] = lorcaserin 125 mg/kg/day oral, M

For `C[C@H]1CN(S(=O)(=O)O)CCc2ccc(Cl)cc21` [Compound M1, lorcaserin sulfamate], the AUC0-inf ([1]; lorcaserin 2 mg/kg/day oral, F) was 41 µg·h/mL and 40.9 ± 1.6 µg·h/mL, the AUClast ([1]; lorcaserin 2 mg/kg/day oral, F) was 39.3 ± 1.8 µg·h/mL and the Cmax ([1]; lorcaserin 2 mg/kg/day oral, F) was 4580 ng/mL. For the same compound, the tmax ([1]; lorcaserin 2 mg/kg/day oral, F) was 1.5 ± 0.6 h, the AUC0-inf ([1]; lorcaserin 2 mg/kg/day oral, M) was 62 µg·h/mL and 61.6 ± 15.4 µg·h/mL and the AUClast ([1]; lorcaserin 2 mg/kg/day oral, M) was 56.4 ± 14.3 µg·h/mL. For the same compound, the Cmax ([1]; lorcaserin 2 mg/kg/day oral, M) was 5010 ng/mL, the tmax ([1]; lorcaserin 2 mg/kg/day oral, M) was 3.0 ± 1.2 h and the AUC0-inf [1, 3] was 307 ± 66 µg·h/mL. The AUClast [1, 3] was 269 ± 40 µg·h/mL, the Cmax [1, 3] was 27500 ± 6600 ng/mL and the tmax [1, 3] was 2.5 ± 1.0 h. It also gave an AUC0-inf [1, 4] of 312 ± 79 µg·h/mL, an AUClast [1, 4] of 276 ± 74 µg·h/mL and a Cmax [1, 4] of 22000 ± 7600 ng/mL. The tmax [1, 4] was 3.3 ± 1.5 h, the AUC0-inf [1, 5] was 877 ± 221 µg·h/mL and the AUClast [1, 5] was 771 ± 182 µg·h/mL. The Cmax [1, 5] was 56300 ± 13400 ng/mL, the tmax [1, 5] was 5.2 ± 2.4 h and the AUC0-inf [1, 6] was 1060 ± 313 µg·h/mL. For the same compound, the AUClast [1, 6] was 904 ± 228 µg·h/mL, the Cmax [1, 6] was 62300 ± 14100 ng/mL and the tmax [1, 6] was 4.7 ± 1.6 h. It also gave an AUC0-inf [1, 7] of 1910 ± 865 µg·h/mL, an AUClast [1, 7] of 1580 ± 501 µg·h/mL and a Cmax [1, 7] of 115000 ± 24000 ng/mL. The tmax [1, 7] was 3.5 ± 2.5 h, the AUC0-inf [1, 8] was 2020 ± 856 µg·h/mL and the AUClast [1, 8] was 1460 ± 269 µg·h/mL. The Cmax [1, 8] was 106000 ± 31000 ng/mL, the tmax [1, 8] was 3.7 ± 2.3 h and the “AUC0-inf in monkeys relative to predicted daily exposure in severe renal impairment” value ([1]; monkeys 2 mg/kg/day (NOAEL), human 10 mg BID) was 1.6-2.4 times. For the same compound, the “Cmax in monkeys relative to predicted Cmax in severe renal impairment” value ([1]; monkeys 2 mg/kg/day (NOAEL), human 10 mg BID steady state) was “approximately 5 times”, the “Cmax margin, monkeys vs predicted exposure in severe renal impairment” value ([1]; monkeys 10 mg/kg/day) was 20-25 times and the “AUC0-inf exposure margin, monkeys vs predicted daily exposure in severe renal impairment” value ([1]; monkeys 10 mg/kg/day, human 10 mg BID) was “about 12 fold”. For the same compound, the “Dose proportionality of plasma exposure” value [1] was “less than dose proportional”, the AUC24 hr ([2]; Mild) was 4620 ng·h/mL and the Cmax ([2]; Mild) was 207 ng/mL. It also gave a t1/2 ([2]; Mild) of 34.6 h, an AUC24 hr ([2]; Moderate) of 9670 ng·h/mL and a Cmax ([2]; Moderate) of 414 ng/mL. It also gave a t1/2 ([2]; Moderate) of 109 h, an AUC24 hr ([2]; Normal) of 2790 ng·h/mL and a Cmax ([2]; Normal) of 130 ng/mL. For the same compound, the t1/2 ([2]; Normal) was 30.0 h, the AUC24 hr ([2]; Severe) was 25,500 hr · ng/mL and the Cmax ([2]; Severe) was 1090 ng/mL. For the same compound, the t1/2 ([2]; Severe) was 99.2 h and the “Level some individuals with severe renal impairment might reach at steady state” value ([2]; five times the modeled mean of 1090 ng/mL) was “over 5000 ng/mL; also recorded: more than 5000 ng/mL”.

For `C[C@H]1CNCCc2ccc(Cl)cc21` [Lorcaserin, (R)-8-chloro-1-methyl-2,3,4,5-tetrahydro-1H-3-benzazepine], the “Dose proportionality of plasma exposure” value [1] was “dose linear”, the AUC24 hr ([2]; ESRD) was 1860 ng·h/mL and the Cmax ([2]; ESRD) was 87.6 ng/mL. It also gave a t1/2 ([2]; ESRD) of 24.8 h, an AUC24 hr ([2]; Mild) of 1270 ng·h/mL and a Cmax ([2]; Mild) of 64.1 ng/mL. The t1/2 ([2]; Mild) was 12.0 h, the AUC24 hr ([2]; Moderate) was 935 ng·h/mL and the Cmax ([2]; Moderate) was 49.5 ng/mL. For the same compound, the t1/2 ([2]; Moderate) was 11.5 h, the AUC24 hr ([2]; Normal) was 942 ng·h/mL and the Cmax ([2]; Normal) was 55.8 ng/mL. For the same compound, the t1/2 ([2]; Normal) was 8.28 h, the AUC24 hr ([2]; Severe) was 835 ng·h/mL and the Cmax ([2]; Severe) was 40.9 ng/mL. It also gave a t1/2 ([2]; Severe) of 12.8 h.
